Results on 78 compounds are retold here after the METLIN SMRT retention time set (Domingo-Almenara et al. 2019).

A short description of the series: gradient 5% acetonitrile 3 min, to 50% in 2 min, to 85% in 15 min, held 3 min, 100 µL/min. The note with it: column: Zorbax Extend-C18 2.1 x 50 mm; eluents: water / acetonitrile, 0.1% formic acid. In outline:
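Retention time was recorded from adduct peaks, which were picked computationally and each inspected manually. Pure standards ran in mixtures of ~100 molecules on HPLC coupled to a quadrupole time-of-flight mass spectrometer, in positive and negative ionization mode, through a Zorbax Extend-C18 column (2.1 × 50 mm, 1.8 μm) at 100 μL/min. Eluents were water and acetonitrile, each with 0.1% formic acid.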
Consider `O=c1ncn2nc(Sc3ccc(F)cc3F)ccc2c1-c1c(Cl)cccc1Cl`, for which the RP-LC retention time came out at 894 s.
As for `CS(=O)(=O)Nc1ccc(C2(C(=O)NCc3ccccc3F)CCCCC2)cc1`, the figure is 904 s; as for `CCOc1ccc(-c2csc(C)n2)cc1S(=O)(=O)N1CCN(c2ccc(OC)cc2)CC1`, 1060 s; as for `CCNC(=O)C1CCN(c2nc3ccc(-c4ccc(F)cc4)nc3s2)CC1`, 861 s.
As for `O=C(NC1CC1)C1CCN(c2cnn(Cc3ccccc3)c(=O)c2)C1` (stereo not drawn), the figure is 664 s.
As for `O=C(Cn1ncc2c3ccccc3n(Cc3ccccc3F)c2c1=O)N1CCN(c2ccccn2)CC1`, the figure is 699 s.
In the case of `Cn1c(=O)n(C2CCN(Cc3ccsc3)CC2)c2ncncc21`, the RP-LC retention time is 552 s.
As to `Cc1cc(-c2nnc(-c3ccco3)o2)c(C)n1CC(=O)NCc1cccc(Cl)c1`, the RP-LC retention time worked out at 886 s.
As to `CC(C)n1nnc2cc(C(=O)N(C)CC(=O)Nc3ccc(F)cc3)ccc21`, the RP-LC retention time came out at 726 s.
Next, `CNC(=O)O[C@H]1COc2ccc(N3CCN(C4COC4)CC3)cc2[C@@H]1NC(=O)c1ccc(F)cc1`: 652 s; `COc1ccc(-c2noc(-c3nc(Cc4cccc(F)c4)no3)n2)cc1`: 1170 s.
Compound `Cc1ccc(C)c(NC(=O)c2c(C)sc3ncnc(N4CCCC(C)C4)c23)c1` (stereo not drawn) had an RP-LC retention time of 1240 s.
As for `O=C(Cn1nc2c3cc(F)ccc3ncn2c1=O)Nc1ccc(F)c(Cl)c1`, the figure is 706 s.
As for `COC(=O)c1cccc(C(=O)Nc2ccc(Br)cc2F)n1`, the figure is 1000 s.
Compound `CN(CCc1ccc(Cl)c(Cl)c1)[C@@H]1CCCC[C@@H]1N1CCCC1` yielded an RP-LC retention time of 956 s.
Regarding `Cc1cc(=O)n(CC(=O)NCc2ccc3c(c2)OCO3)c(N2CCc3ccccc3C2)n1`, the RP-LC retention time was 718 s.
Next, `Cc1ccc(-c2nnc(-c3ccc(Br)cc3)o2)cc1S(=O)(=O)N(C)C`: 1090 s.
`Fc1ccc(Nc2nc(N3CCOCC3)nc3[nH]ncc23)cc1` showed an RP-LC retention time of 601 s.
`O=C(c1cnccn1)N1[C@H]2CC[C@@H]1c1cnc(-c3ccc(F)cc3)nc1C2`: the RP-LC retention time was found to be 810 s.
As for `CCOc1ccc(-c2noc(Cn3nc4ccc(-c5ccc(C)cc5)nn4c3=O)n2)cc1OC`, the figure is 966 s; as for `COc1cc(OC)c(NC(=O)Nc2c(-c3cccc(C)c3)nc3ccccn23)cc1Cl`, 721 s.
As for `O=C(Nc1ccc(OCc2nnc(-c3ccc(Cl)cc3)o2)cc1)c1ccsc1`, the figure is 958 s.
Next, `COc1ccccc1N1CCN(C(=O)c2ccc(=O)n(Cc3ccc(F)cc3)n2)CC1`: 763 s.
The compound `CCN1c2ccccc2C(=O)NC12CCN(C(=O)c1cc(OC)c(OC)c(OC)c1)CC2` came in with an RP-LC retention time of 714 s.
In turn, `CCCN1CCN(C(=O)c2sc3ncn(CC(=O)N4CCCCC4C)c(=O)c3c2C)CC1` (stereo not drawn) gave an RP-LC retention time of 596 s.
Next, `CCCCOc1ccc(C(=O)Nc2ccc(F)cc2F)cc1`: 1130 s.
Next, `COc1ccc2c(=O)c(Oc3ccc(C(=O)Nc4nccs4)cc3)c(C)oc2c1`: 788 s; `CCc1nc2cc(-c3noc(-c4ccc(OC)cc4)n3)ccc2o1`: 1180 s.
Next, `Cc1cc(C)c2c(N3CCCC3)nc(C(=O)Nc3ccccc3C)nc2n1`: 671 s; `Cc1ccnc(N2CCCC(C(=O)NCC3CCN(Cc4cccc(Cl)c4)CC3)C2)n1` (stereo not drawn): 604 s.
As to `COc1ccc(-c2nc(-c3ccc4oc(C)nc4c3)no2)cc1OC`, the RP-LC retention time amounted to 978 s.
`COC(=O)c1ccc(NC(=O)c2c(O)c3cccnc3n(-c3ccc(F)cc3)c2=O)cc1` showed an RP-LC retention time of 1210 s.
As for `Cc1ccc(C)c(-c2cc3c(=O)n(Cc4nc(-c5cccc(Br)c5)no4)ncn3n2)c1`, the RP-LC retention time is 1340 s.
The compound `CCOc1ccccc1CNC(=O)COc1nc(CC)nc2oc(C)c(C)c12` gave an RP-LC retention time of 1050 s.
As for `O=C(COc1ccc(F)cc1)Nc1cc(F)c2nc(N3CCOCC3)ccc2c1`, the figure is 882 s; as for `O=C(NC1CCCCC1)C1CCCN(C(=O)c2cccc(Cl)c2)C1` (stereo not drawn), 864 s; as for `Cc1oc(-c2[nH]ncc2C(=O)N2CCCCC2)cc1S(=O)(=O)N1CCC(C)CC1`, 809 s.
Next, `O=C(NCC1CCCO1)c1nnn(-c2ccc(F)cc2)c1-c1ccncc1` (stereo not drawn): 679 s; `COc1ccc(NC(=O)C2CCN(S(=O)(=O)c3ccc4c(c3)sc(=O)n4C)CC2)cc1`: 817 s.
For the compound `CCn1nccc1C(=O)N1CCCN(C2=NS(=O)(=O)C(c3ccc(C)cc3)=C2C)CC1`, the RP-LC retention time came out at 769 s.
As for `CCOC(=O)c1ccccc1NC(=O)Cn1cccc(-c2nc(-c3ccccc3)no2)c1=O`, the figure is 1030 s; as for `CCNc1cc(N2CCC(CCC(=O)NCc3ccc(F)c(Cl)c3)CC2)ncn1`, 682 s; as for `O=C(Nc1cc(-c2ccsc2)no1)c1cccc(F)c1`, 951 s.
Next, `COc1ccc(/C=C/c2nc(NCCCN(C)C)c3ccccc3n2)cc1`: 639 s.
Take `Cc1cccc(-n2c(=O)c3sccc3n(Cc3nc(-c4cccc(Br)c4)no3)c2=O)c1`: the RP-LC retention time stood at 1130 s.
`CCN(Cc1ccc(Cl)cc1)Cc1cc(=O)n2cccc(C)c2n1` returned an RP-LC retention time of 648 s.
As for `COc1ccc(-c2ccc(=O)n(CCCNS(=O)(=O)/C=C/c3ccccc3)n2)cc1`, the figure is 830 s.
In the case of `O=C(NC1CCc2ccccc21)C1CCN(c2ncccc2-c2nc(-c3ccccc3)no2)CC1` (stereo not drawn), the RP-LC retention time was found to be 1120 s.
`COc1ccccc1OCC(=O)Nc1ccc2c(c1)Sc1ncccc1C(=O)N2C(C)C` had an RP-LC retention time of 883 s.
For `CCc1ccc(S(=O)(=O)N2CCC3(CC2)NCCN=C3NCc2ccccc2OC)cc1`, the RP-LC retention time worked out at 779 s.
As for `CCc1ccc(CNC(=O)CN2CCc3ccccc3C2C(=O)N2CCCCC2)cc1` (stereo not drawn), the figure is 965 s; as for `CC1CCN(c2nc(C(=O)N3CCN(C(C)C)CC3)nc3c2cnn3C)CC1`, 604 s.
Next, `Cc1nnc2n1CCC(NS(=O)(=O)c1ccccc1F)CC2` (stereo not drawn): 590 s; `O=C(c1ccc(Br)o1)N1CCN(c2cc(-c3ccccc3)[nH]n2)CC1`: 796 s; `Cc1ccc(C)c(-c2cc3c4nn(CC(=O)Nc5cc(F)ccc5F)c(=O)n4ccn3n2)c1`: 1050 s.
Next, `C[C@H]1CCC/C=C/C2C[C@H](O)C[C@H]2[C@H](O)/C=C/C(=O)O1` (stereo partly drawn): 732 s; `COC(=O)c1cc2nc(-c3ccc(F)cc3)cc(C)n2n1`: 866 s; `COc1ccc(N2CCCS2(=O)=O)cc1NC(=O)c1ccc(Br)o1`: 767 s.
`O=C(Cn1ccc2ccc(N3CCOCC3)nc21)N1CCN(c2ccc(F)cc2)CC1`: the RP-LC retention time stood at 898 s.
As for `Cn1ccc2c(cc(C(=O)N3CCN(c4ccccn4)CC3)n2C)c1=O`, the figure is 560 s; as for `O=C(NCCc1ccccc1)C1CC(=O)N(CCc2c[nH]c3ccc(Cl)cc23)C1` (stereo not drawn), 809 s; as for `Cc1nn(-c2nc(-c3ccc(F)cc3)cs2)c(C)c1CC(=O)Nc1ccccc1Cl`, 1230 s.
As for `COc1ccccc1-c1nc(-c2ccccn2)no1`, the figure is 813 s.
As for `CCN1CCN(Cc2nc3cc(NC(=O)c4cccs4)ccc3n2C(C)C)CC1`, the figure is 586 s.
`COc1ccc(N2C=C(C#N)S(=O)(=O)c3ccc(Cl)cc32)c(OC)c1` yielded an RP-LC retention time of 995 s.
As for `O=C(NC1CCN(Cc2ccccc2)CC1)C1CCCN(c2ncnc3c2nc2n3CCCCC2)C1` (stereo not drawn), the figure is 1050 s; as for `CC(=O)Nc1cccc(NC(=O)C2CC(=O)N(c3n[nH]c4ccccc34)C2)c1` (stereo not drawn), 625 s.
`CN(c1ccccc1)S(=O)(=O)c1ccc(C(=O)Nc2nnc(C3=COCCO3)o2)cc1`: the RP-LC retention time turned out to be 744 s.
As for `CCS(=O)(=O)N1CCCCC1c1nc(-c2cccnc2)n[nH]1` (stereo not drawn), the figure is 615 s; as for `CCC1CCCCN1C(=O)c1cnc2nc(C)ccc2c1Nc1ccc(C(=O)OC)cc1` (stereo not drawn), 681 s.
Next, `O=C(NCc1ccccc1)NCC1CCOCC1`: 651 s; `O=C(O)c1ccccc1C(=O)NCC1COc2ccccc2O1` (stereo not drawn): 708 s; `CCOc1ccc(S(=O)(=O)N2CCCC(C(=O)Nc3ccc(OC)cc3OC)C2)cc1C` (stereo not drawn): 1070 s.
As for `Cn1cnc(S(=O)(=O)N2CCCC(c3[nH]ccc3C(N)=O)C2)c1` (stereo not drawn), the figure is 586 s; as for `CC(C)N1CCN(C(=O)c2cnc(-c3ccccc3)nc2-c2ccncc2)CC1`, 626 s.
The compound `CSc1ccc(CNC(=O)CN2CCc3ccccc3C2C(=O)N2CCCCC2)cc1` (stereo not drawn) came in with an RP-LC retention time of 889 s.
`COc1cccc(-n2cc(C(=O)OCc3ccccn3)c3ccccc3c2=O)c1` came in with an RP-LC retention time of 854 s.
Next, `Cn1cc(-c2cc3n(n2)CCC(=O)N3CC(=O)NCCCN2CCCC2=O)c2ccccc21`: 657 s.
